From patent US10968225B2, “Compounds and compositions for the treatment of cystic fibrosis” (Fondazione Istituto Italiano Di Tecnologia, priority 2017, dated 2021)

biological target: T1, mutant CFTR (Homo sapiens, UniProt P13569, DEL508-508); assay: Fluorescence (HS-YFP) assay for CFTR activity, corrector assay; type: cell-based; details: CFBE41o- and FRT cells with stable expression of mutant CFTR, read-out: activity (EC50)
T1 construct: expressed in transfected cells
T1 sequence (P13569 with tags, fused parts or gaps DEL508-508): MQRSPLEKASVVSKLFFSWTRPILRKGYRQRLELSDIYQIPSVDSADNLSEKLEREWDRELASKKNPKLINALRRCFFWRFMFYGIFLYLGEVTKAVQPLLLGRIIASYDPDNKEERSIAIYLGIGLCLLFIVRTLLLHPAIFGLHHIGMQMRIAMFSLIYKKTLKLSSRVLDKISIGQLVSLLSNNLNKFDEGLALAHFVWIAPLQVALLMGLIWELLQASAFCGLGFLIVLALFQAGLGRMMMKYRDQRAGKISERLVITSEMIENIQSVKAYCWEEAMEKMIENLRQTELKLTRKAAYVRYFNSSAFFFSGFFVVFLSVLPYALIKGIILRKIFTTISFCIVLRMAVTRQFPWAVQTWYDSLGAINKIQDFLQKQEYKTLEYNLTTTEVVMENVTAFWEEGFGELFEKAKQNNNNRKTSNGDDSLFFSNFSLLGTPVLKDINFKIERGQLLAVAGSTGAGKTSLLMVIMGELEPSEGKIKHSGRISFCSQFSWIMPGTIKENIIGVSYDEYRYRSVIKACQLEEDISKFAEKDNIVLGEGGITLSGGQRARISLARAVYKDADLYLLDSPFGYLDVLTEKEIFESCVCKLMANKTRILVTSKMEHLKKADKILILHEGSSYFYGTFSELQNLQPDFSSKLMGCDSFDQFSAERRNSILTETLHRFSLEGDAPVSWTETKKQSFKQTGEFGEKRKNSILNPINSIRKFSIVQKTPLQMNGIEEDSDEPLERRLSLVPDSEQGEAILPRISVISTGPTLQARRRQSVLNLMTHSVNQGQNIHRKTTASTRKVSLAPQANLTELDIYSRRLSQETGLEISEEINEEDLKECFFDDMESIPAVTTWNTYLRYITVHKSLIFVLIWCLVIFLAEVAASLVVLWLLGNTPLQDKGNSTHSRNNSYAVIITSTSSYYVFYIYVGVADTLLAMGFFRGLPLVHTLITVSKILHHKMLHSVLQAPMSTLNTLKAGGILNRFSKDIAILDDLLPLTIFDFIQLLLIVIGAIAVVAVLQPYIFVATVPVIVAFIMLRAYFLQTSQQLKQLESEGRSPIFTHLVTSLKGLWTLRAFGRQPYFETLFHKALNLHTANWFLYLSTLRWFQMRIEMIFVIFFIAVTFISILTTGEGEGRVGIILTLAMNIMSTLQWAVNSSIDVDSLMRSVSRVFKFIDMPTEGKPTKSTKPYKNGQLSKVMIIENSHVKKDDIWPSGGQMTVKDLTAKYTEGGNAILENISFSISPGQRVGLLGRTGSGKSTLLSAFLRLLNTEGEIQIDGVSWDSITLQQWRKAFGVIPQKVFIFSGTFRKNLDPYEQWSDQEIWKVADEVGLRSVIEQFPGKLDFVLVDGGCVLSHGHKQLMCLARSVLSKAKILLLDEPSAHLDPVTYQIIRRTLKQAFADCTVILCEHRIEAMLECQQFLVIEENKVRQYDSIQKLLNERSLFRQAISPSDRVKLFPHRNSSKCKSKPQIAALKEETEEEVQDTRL

SMILES | EC50 [nM]
CN(C(=O)c1cccc(-n2nc(C(F)(F)F)c3c2C(Oc2ccc(C(=O)O)cc2)CCC3)c1)c1ccc2c(c1)S(=O)(=O)CC2 (racemic) [Compound 303, 4-[[1-[3-[(1,1-Dioxo-2,3-dihydrobenzothiophen-6-yl)-methyl-carbamoyl]phenyl]-3-(trifluoromethyl)-4,5,6,7-tetrahydroindazol-7-yl]oxy]benzoic acid] | > 2000
Cc1cc2ncc(N(C)C(=O)c3cccc(-n4nc(C(F)(F)F)c5c4[C@H](Oc4ccc(C(=O)O)cc4)CCC5)c3)cn2n1 (single isomer, unassigned) [Compound 217, (S) or (R)-4-[[1-[3-[Methyl-(2-methylpyrazolo[1,5-a]pyrimidin-6-yl)carbamoyl]phenyl]-3-(trifluoromethyl)-4,5,6,7-tetrahydroindazol-7-yl]oxy]benzoic acid] | < 1000
CN(C(=O)c1cccc(-n2nc(C(F)(F)F)c3c2C(Oc2cncc(C(=O)O)c2)CCC3)c1)c1ccc2c(c1)OC(F)(F)O2 (single isomer, unassigned) [Compound 271, (S) or (R)-5-[[1-[3-[(2,2-Difluoro-1,3-benzodioxol-5-yl)-methyl-carbamoyl]phenyl]-3-(trifluoromethyl)-4,5,6,7-tetrahydroindazol-7-yl]oxy]pyridine-3-carboxylic acid] | < 1000
Cc1nc2ncc(N(C)C(=O)c3cccc(-n4nc(C(F)(F)F)c5c4C(Oc4ccc(C(=O)O)cc4)CCC5)c3)cc2o1 (single isomer, unassigned) [Compound 287, (S) or (R)-4-[[1-[3-[Methyl-(2-methyloxazolo[4,5-b]pyridin-6-yl)carbamoyl]phenyl]-3-(trifluoromethyl)-4,5,6,7-tetrahydroindazol-7-yl]oxy]benzoic acid] | < 1000
Cc1n[nH]c(C)c1S(=O)(=O)N1CCc2c(c(C(F)(F)F)nn2-c2cccc(C(=O)N(C)c3ccc4c(c3)OCO4)c2)C1 [Compound 069, N-(1,3-Benzodioxol-5-yl)-3-[5-[(3,5-dimethyl-4H-pyrazol-4-yl)sulfonyl]-3-(trifluoromethyl)-6,7-dihydro-4H-pyrazolo[4,3-c]pyridin-1-yl]-N-methyl-benzamide] | < 1000
COC(=O)c1ccccc1S(=O)(=O)N1CCc2c(c(C(F)(F)F)nn2-c2cccc(C(=O)N(C)c3ccc4c(c3)OCO4)c2)C1 [Compound 060, Methyl 2-[[1-[3-[1,3-benzodioxol-5-yl(methyl)carbamoyl]phenyl]-3-(trifluoromethyl)-6,7-dihydro-4H-pyrazolo[4,3-c]pyridin-5-yl]sulfonyl]benzoate] | < 1000
Cc1nc(S(=O)(=O)N2CCc3c(c(C(F)(F)F)nn3-c3cccc(C(=O)N(C)c4ccc5c(c4)OCO5)c3)C2)cn1C [Compound 064, N-(1,3-Benzodioxol-5-yl)-3-[5-(1,2-dimethylimidazol-4-yl)sulfonyl-3-(trifluoromethyl)-6,7-dihydro-4H-pyrazolo[4,3-c]pyridin-1-yl]-N-methyl-benzamide] | < 1000
Cc1[nH]nc(C(=O)O)c1S(=O)(=O)N1CCc2c(c(C(F)(F)F)nn2-c2cccc(C(=O)N(C)c3ccc4c(c3)OCO4)c2)C1 [Compound 089, 4-[[1-[3-[1,3-Benzodioxol-5-yl(methyl)carbamoyl]phenyl]-3-(trifluoromethyl)-6,7-dihydro-4H-pyrazolo[4,3-c]pyridin-5-yl]sulfonyl]-5-methyl-1H-pyrazole-3-carboxylic acid] | < 1000
COc1ccc(N(C)C(=O)c2cccc(-n3nc(C(F)(F)F)c4c3CCN(C(=O)C(C)(C)C)C4)c2)cn1 [Compound 085, 3-[5-(2,2-Dimethylpropanoyl)-3-(trifluoromethyl)-6,7-dihydro-4Hpyrazolo[4,3-c]pyridin-1-yl]-N-(6-methoxy-3-pyridyl)-N-methylbenzamide] | < 1000
CN(C(=O)c1cccc(-n2nc(C(F)(F)F)c3c2CCN(C2CC(C(=O)O)C2)C3)c1)c1ccc2c(c1)OCO2 (stereo not shown) [Compound 140, 3-[1-[3-[1,3-Benzodioxol-5-yl(methyl)carbamoyl]phenyl]-3-(trifluoromethyl)-6,7-dihydro-4H-pyrazolo[4,3-c]pyridin-5-yl]cyclobutanecarboxylic acid] | > 2000
